Key:
[1] = in vivo metabolism in mice, micellar HPLC (MLC); details: CD-1 mice, 30 min p.i.; for intact radioligand in brain: brain homogenate; for intact radioligand in plasma: direct injection
Source text: Therefore we used micellar HPLC (MLC), because this method allows the direct injection of plasma samples without deproteination. MLC was recently investigated by Nakao et al. regarding their suitability for direct plasma metabolite analysis of PET radioligands. As eluent a mixture of an aqueous solution of sodium dodecyl sulphate (SDS), phosphate buffer and 1-propanol was used. According to the published procedure, a gradient mode was applied starting under micellar conditions to completely elute the protein fraction and release the protein bound ^18F-compounds by the SDS micelles. Subsequent increase of the amount of 1-propanol as organic modifier leads to high submicellar conditions resulting in the elution of the intact radioligand and its radio-metabolites.
The radioligands [^18F]TA3 or [^18F]TA4 (~60 MBq in 150 µL isotonic saline) were injected via the tail vein in female CD-1 mice (10–12 weeks old). Brain and blood samples were obtained at 30 min p.i., plasma separated by centrifugation (14,000× g, 1 min), and brain homogenized in ~1 mL isotonic saline on ice (10 strokes of a PTFE plunge at 1000 rpm in a borosilicate glass cylinder; Potter S Homogenizer, B. Braun Melsungen AG, Melsungen, Germany).
For preparation of the MLC injection samples, mouse plasma (20–50 µL, 30 min p.i.) was dissolved in 100–300 µL of 200 mM aqueous SDS and injected directly into the MLC system (500 µL sample loop; column: Reprosil-Pur C18-AQ, 250 × 4.6 mm, particle size: 10 µm; gradient: 0–15 min: 3% 1-PrOH, 15–40 min: 3% → 30% 1-PrOH; 40–49 min: 30% 1-PrOH, 49–50 min: 30% → 3% 1-PrOH; 50–60 min: 3% 1-PrOH/100 mM SDS, 10 mM Na2HPO4; flow: 1 mL/min; ambient temperature). […] Homogenized brain material (100–200 µL, 30 min p.i.) was dissolved in 500 µL of 200 mM aqueous SDS, stirred at 75 °C for 5 min and after cooling to ambient temperature injected into the MLC system.

[2] = lipophilicity (logD7.4), shake-flask method; format: physicochemical; details: n-octanol/PBS (1:1, v/v), n-octanol / PBS pH 7.4, ambient temperature, fourfold determination
Method: (§1) To estimate the lipophilicity of [^18F]TA3 and [^18F]TA4, the distribution coefficients were determined by partitioning between n-octanol and phosphate buffered saline (PBS, pH 7.4) at ambient temperature using the conventional shake-flask method. […] In vitro stability of each radioligand was investigated in phosphate buffered saline (PBS, pH 7.4), n-octanol and pig plasma after 60 min incubation at 37 °C.
The lipophilicity of [^18F]TA3 or [^18F]TA4 was determined by partitioning between n-octanol and phosphate buffered saline (PBS, pH 7.4) at ambient temperature using the conventional shake-flask method. An aliquot of 10 µL of the formulated solutions of each [^18F]TA3 or [^18F]TA4 with approximately 1 MBq of the radioligand was added to a tube containing 6 mL of the n-octanol/PBS-mixture (1:1, v/v, fourfold determination). The tubes were shaken for 20 min using a mechanical shaker (HS250 basic, IKA Labortechnik GmbH & Co. KG, Staufen, Germany) followed by centrifugation (5000 rpm for 5 min) and separation of the phases. Aliquots of each 1 mL were taken from the organic and the aqueous phase and activity was measured using an automated gamma counter (1480 WIZARD, Fa. Perkin Elmer, Waltham, MA, USA). The distribution coefficient (D) was calculated as [activity (cpm/mL) in n-octanol]/[activity (cpm/mL) in PBS, pH 7.4] specified as the decade logarithm (logD7.4).

[3] = in vitro stability in PBS, n-octanol and pig plasma; format: in vitro ADME; details: PBS pH 7.4, n-octanol and pig plasma, 60 min at 37 °C; radio-TLC and radio-HPLC
Method: as §1
In vitro stabilities of [^18F]TA3 or [^18F]TA4 were investigated by incubation of the radioligands in phosphate buffered saline (PBS, pH 7.4), n-octanol and pig plasma at 37 °C for 60 min (~5 MBq of the radioligand added to 500 µL of each medium). Samples were taken at 15, 30 and 60 min after incubation and analyzed by radio-TLC and radio-HPLC (system B).

| intact radioligand in brain [1] | intact radioligand in plasma [1] | logD [2] | in vitro stability [3] | Compound |
| --- | --- | --- | --- | --- |
| 29 % of total activity | 5 % of total activity | 3.37 ± 0.14 | stable in all media tested in vitro | COc1ccc2nnc3c(C)nc(-c4cc(OCCC[18F])ccc4F)n3c2n1 [[^18F]TA3] |
| 4 % of total activity | 5 % of total activity | 2.99 ± 0.15 | stable in all media tested in vitro | COc1ccc2nnc3c(C)nc(-c4cc(OCCCC[18F])ccc4F)n3c2n1 [[^18F]TA4] |

— article PMC6272448, “Synthesis, ^18F-Radiolabelling and Biological Characterization of Novel Fluoroalkylated Triazine Derivatives for in Vivo Imaging of Phosphodiesterase 2A in Brain via Positron Emission Tomography” (Molecules, 2015)
